The text below walks through data of US11980595B2, “Preventive or therapeutic agent and pharmaceutical composition for inflammatory diseases or bone diseases” (National University Corporation Chiba University, priority 2018, dated 2024).

Structures are written as SMILES.

One assay deals with Interleukin (IL)-6. Kind of assay: Inflammatory cytokine IL-6 in plasma of DSS ulcerative colitis model mice (ELISA). The settings on record: for IL-6 concentration in blood: 3% DSS mice, plasma day 15, compared to DSS+saline. It is filed as in vivo.
Description: Furthermore, after the blood collection was completed, the mice in each group were euthanized by exsanguination under isoflurane anesthesia.
(§1) Interleukin (IL)-6 was quantified as the inflammatory cytokine. IL-6 was quantified by ELISA method using a commercially available kit.
Furthermore, after blood collection was completed, the mice in each group were euthanized by exsanguination under isoflurane anesthesia.
as §1
On the technique in general: In an ELISA, binding on a coated surface is turned into a signal by an enzyme label.

The test system of assay [1] is DSS-treated mice, the ulcerative colitis animal model. Kind of assay: Disease condition score in DSS ulcerative colitis model mice. The note with it: for disease condition score: 3% DSS mice, scored day 7, 10, 12, 14.
Another assay deals with NMDA receptors. The note with it: S-ketamine compared to R-ketamine; cited from earlier work.
A further assay concerns RANKL. Kind of assay: Plasma RANKL and OPG/RANKL ratio in social defeat stress mice (ELISA). The settings on record: for OPG/RANKL ratio / RANKL concentration in plasma: compared to saline; for restoring abnormally high expression of RANKL to a normal value: summary of Experimental Example 6, 10 mg/kg i.p. once; for therapeutic effect (restoring abnormally high expression of RANKL to a normal value): summary of Experimental Example 11, 10 mg/kg i.p. once.

In assay [2] the test system is social defeat stress mice. Kind of assay: Femur bone density by X-ray CT in social defeat stress mice. It is filed as in vivo. The settings on record: Experimental Example 11, 10 mg/kg i.p. once, D15, compared to saline.
Assay [3] has as its system social defeat stress mice. Kind of assay: Behavioral rating (tail suspension, forced swimming, sucrose preference tests) in social defeat stress mice. The settings on record: Experimental Example 11, 10 mg/kg i.p. once on D12, tests D12-D14, compared to saline.
The test system of assay [4] is DSS-treated mice, the ulcerative colitis animal model. Kind of assay: Colonic inflammation score in DSS ulcerative colitis model mice. The note with it: 3% DSS mice, 10 mg/kg i.p. once a day for 14 days, day 15. It is filed as in vivo. On the procedure:
The mice from each group that had been euthanized were resected from cecum to anus, and a length from directly below the cecum to the anus was measured. Subsequently, the lumen of the colon was washed with saline, and after washing, an incision was made in the longitudinal direction, and a colonic inflammation score was determined according to the following evaluation criteria.
The mice from each group that had been euthanized were resected from the cecum to the anus, and the length from directly below the cecum to the anus was measured.

In a further assay the test system is ovariectomized mice. The experiment in a line: Femur bone density by X-ray CT in ovariectomized mice (osteoporosis model). It is filed as in vivo. The note with it: Experimental Example 13, 10 mg/kg i.p. Monday and Thursday, 6 weeks after surgery, compared to saline. The source says: The effect of R-ketamine was examined using ovariectomized mice as a model animal for osteoporosis.

Another assay deals with sRANKL-administered mice. Kind of assay: Femur bone density by X-ray CT in sRANKL-administered mice (osteoporosis model). The note with it: Experimental Example 12, sRANKL (1 mg/kg) mice, 10 mg/kg i.p. 30 minutes before sRANKL and 24 and 48 hours after.
The mark [5] stands for this setting: Experimental Example 4, 10 mg/kg i.p. once a day for 14 days.
Setting [6] is: Experimental Example 2, 10 mg/kg i.p. once a day for 14 days.
Setting [7] is: summary of Experimental Examples 1 to 4, intraperitoneal 10 mg/kg.
Setting [8] is: Experimental Example 6, 10 mg/kg i.p. once, four days after.
Where [9] appears, read: Experimental Example 6, 10 mg/kg i.p. once, plasma four days after.
[10] abbreviates: Experimental Example 11, 10 mg/kg i.p. once, plasma three days after (D15).

Take `Nc1ccc(O)c(C(=O)O)c1` [5-ASA, 5-aminosalicylic acid, reference compound]: the “IL-6 concentration in blood” value in the assay on Interleukin (IL)-6 (Experimental Example 10, 50 mg/kg i.p. once a day for 14 days) is recorded as “a significant decrease of IL-6 concentration in blood was not observed”. In assay [1] (Experimental Example 8, 50 mg/kg i.p. once a day for 14 days, compared to DSS and saline), the disease condition score entry is listed as “improvement tendency of the disease condition score was observed in the “DSS+5-ASA” group, but it was not significant”. The “therapeutic effect in ulcerative colitis animal model” value in assay [1] (summary of Experimental Examples 7 to 10, intraperitoneal 50 mg/kg) was “extremely weak therapeutic effect”.

For `CN[C@]1(c2ccccc2Cl)CCCCC1=O` [S-ketamine], the “IL-6 concentration in blood” value in the assay on Interleukin (IL)-6 (setting [5]) is “significant decrease of IL-6 concentration in blood”. For the same compound, the “affinity for NMDA receptors” value in the assay on NMDA receptors is on record as “stronger affinity for NMDA receptors than R-ketamine”. Besides, the disease condition score result in assay [1] (setting [6]) is on record as “improvement tendency of the disease condition score was observed in the “DSS+S-ketamine” group, but it was not significant”. The “therapeutic effect in ulcerative colitis animal model” value in assay [1] (setting [7]) is “exhibited a tendency for a therapeutic effect in the ulcerative colitis animal model, but the effect was weaker than that of R-ketamine”. Further, the OPG/RANKL ratio result in the assay on RANKL (setting [8]) is recorded as “a significant change to the OPG/RANKL ratio was not observed”. The “RANKL concentration in plasma” value with RANKL (setting [9]) is “a significant change to RANKL concentration in plasma was not observed”. Further, the “restoring abnormally high expression of RANKL to a normal value” in the assay with RANKL is listed as “such an effect was not observed”.

Take `N[C@@]1(c2ccccc2Cl)CCC[C@@H](O)C1=O` [2R,6R-HNK, 2R,6R-hydroxynorketamine]: in [2], the cortical bone density result is “no significant change” and the total bone density result is “no significant change”. Moreover, the “RANKL concentration in plasma” value in the assay with RANKL (setting [10]) is listed as “a significant change to RANKL concentration in plasma was not observed”. The OPG/RANKL ratio entry with RANKL (Experimental Example 11, 10 mg/kg i.p. once, three days after (D15), 10 mg/kg) is reported as “a significant change to the OPG/RANKL ratio was not observed”. Also, the “therapeutic effect (restoring abnormally high expression of RANKL to a normal value)” value in the assay on RANKL was “no therapeutic effect was observed”. In addition, the “antidepressant effect (tail suspension test, forced swimming test, sucrose preference test)” value in [3] was “no antidepressant effect”.

For the compound `CN[C@@]1(c2ccccc2Cl)CCCCC1=O` [R-ketamine], the colonic inflammation score entry in [4] (Experimental Example 3, compared to DSS+S-ketamine group) is recorded as “significant improvement of the colonic inflammation score”; in assay [4] (Experimental Example 9, compared to DSS+5-ASA (50 mg/kg) group), “significant improvement of the colonic inflammation score”. Moreover, in the assay on Interleukin (IL)-6 (setting [5]), the “effect of reducing IL-6 in blood, R-ketamine compared to S-ketamine” value is reported as “higher than when administering S-ketamine”. Besides, the “IL-6 concentration in blood” value with Interleukin (IL)-6 (setting [5]) was “significant decrease of IL-6 concentration in blood”; in the assay on Interleukin (IL)-6 (Experimental Example 10, 10 mg/kg i.p. once a day for 14 days), “a significant decrease of IL-6 concentration in blood was observed”. For the same compound, the cortical bone density result (in assay [2]; with ovariectomized mice; in the assay on sRANKL-administered mice (compared to saline)) was “significantly improved” throughout. Also, the total bone density result (in assay [2]; in the assay on ovariectomized mice; with sRANKL-administered mice (compared to saline)) was “significantly improved” in each case. The cancellous bone density result in the assay with ovariectomized mice is “tended to increase along with R-ketamine administration, but it was not statistically significant”; in the assay on sRANKL-administered mice, “significantly increased”. In the assay with ovariectomized mice, the plane bone density result was “tended to increase along with R-ketamine administration, but it was not statistically significant”. Moreover, the disease condition score result was “significant improvement of the disease condition score” in assay [1] (setting [6]); “significant improvement of the disease condition score” in [1] (Experimental Example 8, 10 mg/kg i.p. once a day for 14 days, compared to DSS and saline). In addition, the “therapeutic effect in ulcerative colitis animal model” value in [1] (setting [7]) is “exhibited a therapeutic effect”; in assay [1] (summary of Experimental Examples 7 to 10, intraperitoneal 10 mg/kg), “significant therapeutic effect”. Also, the OPG/RANKL ratio result was “significantly increased” in the assay with RANKL (setting [8]) and “significantly increased” with RANKL (Experimental Example 11, 10 mg/kg i.p. once, three days after (D15)). The “RANKL concentration in plasma” value with RANKL (setting [9]) and with RANKL (setting [10]) was “significantly decreased” each time. Also, the “restoring abnormally high expression of RANKL to a normal value” in the assay on RANKL is on record as “able to restore an abnormally high expression of RANKL to a normal value”. The “therapeutic effect (restoring abnormally high expression of RANKL to a normal value)” value in the assay on RANKL was “able to restore an abnormally high expression of RANKL to a normal value”. In addition, the “antidepressant effect (tail suspension test, forced swimming test, sucrose preference test)” value in assay [3] was “significantly higher antidepressant effect”.
